Results: PubChem BioAssay AID248 (DTP/NCI, 2004)
“And” between values parts separate entries of the source, which are not always exact repeats. Equal entries are not always repeated. Toxic doses and inconclusive results are not listed.

System: L1210 leukemia ip in BDF1 mice, survival T/C
Assay: NCI In Vivo Anticancer Drug Screen. Data for tumor model L1210 Leukemia (intraperitoneal) in B6D2F1 (BDF1) mice
Settings: endpoint: mean survival time, higher = longer survival
In short: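 Mice bearing the transplanted tumor received compound or vehicle. Survival of the treated group was divided by that of the vehicle-treated control group to give the ratio.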

[1] = dose: 100.0 mg/kg/injection, schedule: Q01DX009 (ip), vehicle: saline
[2] = dose: 100.0 mg/kg/injection, schedule: Q04DX003 (ip), vehicle: saline
[3] = dose: 200.0 mg/kg/injection, schedule: Q01DX009 (ip), vehicle: saline
[4] = dose: 200.0 mg/kg/injection, schedule: Q04DX003 (ip), vehicle: saline
[5] = dose: 400.0 mg/kg/injection, schedule: Q04DX003 (ip), vehicle: saline
[6] = dose: 100.0 mg/kg/injection, schedule: Q04DX003 (ip), vehicle: saline with Tween-80
[7] = dose: 200.0 mg/kg/injection, schedule: Q04DX003 (ip), vehicle: saline with Tween-80
[8] = dose: 400.0 mg/kg/injection, schedule: Q04DX003 (ip), vehicle: saline with Tween-80
[9] = dose: 100.0 mg/kg/injection, schedule: Q04DX003 (ip), vehicle: Klucel (hydroxypropylcellulose) (HPC)
[10] = dose: 200.0 mg/kg/injection, schedule: Q04DX003 (ip), vehicle: Klucel (hydroxypropylcellulose) (HPC)
[11] = dose: 400.0 mg/kg/injection, schedule: Q04DX003 (ip), vehicle: Klucel (hydroxypropylcellulose) (HPC)
[12] = dose: 100.0 mg/kg/injection, schedule: Q01DX001 (ip), vehicle: carboxymethylcellulose (CMC)
[13] = dose: 200.0 mg/kg/injection, schedule: Q01DX001 (ip), vehicle: carboxymethylcellulose (CMC)
[14] = dose: 400.0 mg/kg/injection, schedule: Q01DX001 (ip), vehicle: carboxymethylcellulose (CMC)
[15] = dose: 50.0 mg/kg/injection, schedule: Q01DX009 (ip), vehicle: Klucel (hydroxypropylcellulose) (HPC)
[16] = dose: 100.0 mg/kg/injection, schedule: Q01DX009 (ip), vehicle: Klucel (hydroxypropylcellulose) (HPC)

With O=C(O)CCC(=O)c1cccc2ccccc12 the T/C [1] was 96 % of control, the T/C [2] was 105 % of control and the T/C [3] was 112 % of control. For the same compound, the T/C [4] was 94 % of control and the T/C [5] was 103 % of control.

O=C(O)C1CCCCC1C(=O)Nc1ccc(Br)cc1 (stereo not drawn) was tested, and the T/C (dose: 100.0 mg/kg/injection, schedule: Q04DX002 (ip), vehicle: Klucel (hydroxypropylcellulose) (HPC)) was 100 % of control, the T/C (dose: 200.0 mg/kg/injection, schedule: Q04DX002 (ip), vehicle: Klucel (hydroxypropylcellulose) (HPC)) was 100 % of control and the T/C (dose: 400.0 mg/kg/injection, schedule: Q04DX002 (ip), vehicle: Klucel (hydroxypropylcellulose) (HPC)) was 118 % of control.

In the case of O=C(CCCCl)CC(O)(C(F)(F)F)C(F)(F)F, the T/C (dose: 100.0 mg/kg/injection, schedule: Q01DX009 (ip), vehicle: saline with Tween-80) is reported as 104 % of control, the T/C [6] is reported as 101 % of control and the T/C (dose: 200.0 mg/kg/injection, schedule: Q01DX009 (ip), vehicle: saline with Tween-80) is reported as 93 % of control. The T/C [7] was 94 % of control and the T/C [8] was 100 % of control.

CCOP(OCC)N1CCCCCC1=O was tested, and the T/C [6] was 100 % of control, the T/C [7] was 95 % of control and the T/C [8] was 89 % of control.

For NCc1cc(=O)[nH]c(=O)[nH]1, the T/C [2] was 104 % of control and the T/C [5] was 89 % of control.

In the case of COC1=C2C[C@@H](C)C[C@@H](OC)[C@@H](O)[C@H](C)/C=C(\C)[C@@H](OC(N)=O)[C@H](OC)/C=C\C=C(/C)C(=O)NC(=CC1=O)C2=O, the T/C (dose: 0.13 mg/kg/injection, schedule: Q01DX009 (ip), vehicle: saline with Tween-80) is reported as 103 % of control, the T/C (dose: 0.25 mg/kg/injection, schedule: Q01DX009 (ip), vehicle: saline with Tween-80) is reported as 103 % of control and the T/C (dose: 0.5 mg/kg/injection, schedule: Q01DX009 (ip), vehicle: saline with Tween-80) is reported as 98 % of control. For the same compound, the T/C (dose: 1.0 mg/kg/injection, schedule: Q01DX009 (ip), vehicle: saline with Tween-80) was 101 % of control, the T/C (dose: 2.0 mg/kg/injection, schedule: Q01DX009 (ip), vehicle: saline with Tween-80) was 103 % of control and the T/C (dose: 4.0 mg/kg/injection, schedule: Q01DX009 (ip), vehicle: saline with Tween-80) was 108 % of control.

In the case of Nc1nc2c(c(-c3ccccc3)n1)CN(CCC(=O)O)C2=O, the T/C (dose: 100.0 mg/kg/injection, schedule: Q01DX001 (ip), vehicle: saline) is reported as 103 % of control, the T/C [2] is reported as 98 % of control and the T/C (dose: 200.0 mg/kg/injection, schedule: Q01DX001 (ip), vehicle: saline) is reported as 107 % of control. For the same compound, the T/C [4] was 100 % of control, the T/C (dose: 400.0 mg/kg/injection, schedule: Q01DX001 (ip), vehicle: saline) was 100 % of control and the T/C [5] was 98 % of control.

In the case of COC(=O)C(C)NC(=O)CNC(=O)CNC(=O)OCc1ccccc1 (stereo not drawn), the T/C [9] is reported as 97 % of control, the T/C [10] is reported as 100 % of control and the T/C [11] is reported as 95 % of control.

For Cc1oncc1/C=C/c1ccon1, the T/C (dose: 100.0 mg/kg/injection, schedule: Q04DX003 (ip), vehicle: other) was 96 % of control and the T/C (dose: 200.0 mg/kg/injection, schedule: Q04DX003 (ip), vehicle: other) was 91 % of control.

For CC(C)(C)OC(=O)NN1Cc2ccccc2Cc2ccccc2C1, the T/C [12] was 96 % of control, the T/C [13] was 91 % of control and the T/C [14] was 96 % of control.

O=C1N(Cl)C(=O)C(c2ccccc2)(c2ccc(F)cc2)N1Cl (stereo not drawn) was tested, and the T/C [15] was 94 % of control, the T/C [16] was 94 % of control and the T/C [9] was 96 % of control. For the same compound, the T/C [10] was 94 % of control.

For COc1c(O)c2c(c3cc(C(=O)N4CCc5c4c(O)c(OC)c4[nH]c(C(=O)N6CC7CC78C6=CC(=O)c6[nH]cc(C)c68)cc54)[nH]c13)CCN2C(N)=O (stereo not drawn), the T/C (dose: 6.25 micrograms/kg/injection, schedule: Q01DX009 (ip), vehicle: DMSO) was 124 % of control, the T/C (dose: 12.5 micrograms/kg/injection, schedule: Q01DX009 (ip), vehicle: DMSO) was 111 % of control and the T/C (dose: 100.0 micrograms/kg/injection, schedule: Q01DX009 (ip), vehicle: DMSO) was 96 % of control.

CC(CS(=O)(=O)O)N1CCN(CCO)CC1 (stereo not drawn) was tested, and the T/C [1] was 101 % of control, the T/C [2] was 108 % of control and the T/C [3] was 96 % of control. The T/C [4] was 103 % of control, the T/C (dose: 400.0 mg/kg/injection, schedule: Q01DX009 (ip), vehicle: saline) was 96 % of control and the T/C [5] was 94 % of control.

CN(C(=O)c1ccccc1)N(C)C(=O)c1ccccc1 was tested, and the T/C (dose: 25.0 mg/kg/injection, schedule: Q01DX009 (ip), vehicle: Klucel (hydroxypropylcellulose) (HPC)) was 106 % of control, the T/C [15] was 95 % of control and the T/C (dose: 50.0 mg/kg/injection, schedule: Q04DX003 (ip), vehicle: Klucel (hydroxypropylcellulose) (HPC)) was 98 % of control. The T/C [9] was 110 % of control.

With CC1([N+](=O)[O-])COP(=O)(NCc2cccnc2)OC1 (stereo not drawn) the T/C (dose: 50.0 mg/kg/injection, schedule: Q01DX001 (ip), vehicle: carboxymethylcellulose (CMC)) was 103 % of control, the T/C [12] was 95 % of control and the T/C [13] was 113 % of control. For the same compound, the T/C [14] was 95 % of control.

For Cc1cc(Cc2cc(C)c(O)c(C(C)(C)C)c2)cc(C(C)(C)C)c1O, the T/C (dose: 50.0 mg/kg/injection, schedule: Q04DX002 (ip), vehicle: other) was 93 % of control, the T/C (dose: 100.0 mg/kg/injection, schedule: Q04DX002 (ip), vehicle: other) was 87 % of control and the T/C (dose: 200.0 mg/kg/injection, schedule: Q04DX002 (ip), vehicle: other) was 90 % of control.

In the case of c1ccc2c(c1)ccc1cc3cccc[n+]3cc12, the T/C (dose: 0.31 mg/kg/injection, schedule: Q01DX009 (ip), vehicle: saline) is reported as 98 % of control, the T/C (dose: 0.62 mg/kg/injection, schedule: Q01DX009 (ip), vehicle: saline) is reported as 98 % of control and the T/C (dose: 1.25 mg/kg/injection, schedule: Q01DX009 (ip), vehicle: saline) is reported as 101 % of control and 104 % of control. For the same compound, the T/C (dose: 5.0 mg/kg/injection, schedule: Q04DX003 (ip), vehicle: saline) was 102 % of control and the T/C (dose: 10.0 mg/kg/injection, schedule: Q04DX003 (ip), vehicle: saline) was 96 % of control.

For Cc1ccc(C)c(NC(=O)N2CCN(C)CC2)c1, the T/C [1] was 97 % of control and the T/C [3] was 100 % of control.

With C=CCNC(=S)Nc1ccc(C)cc1 the T/C [15] was 95 % of control, the T/C [16] was 97 % of control and the T/C [9] was 103 % of control. The T/C (dose: 200.0 mg/kg/injection, schedule: Q01DX009 (ip), vehicle: Klucel (hydroxypropylcellulose) (HPC)) was 100 % of control, the T/C [10] was 101 % of control and the T/C [11] was 88 % of control.

In the case of CCOP(=O)(N1CC1(C)C)N1CC1(C)C (stereo not drawn), the T/C (dose: 1.0 mg/kg/injection, schedule: Q01DX009 (ip), vehicle: saline) is reported as 100 % of control, the T/C (dose: 2.0 mg/kg/injection, schedule: Q01DX009 (ip), vehicle: saline) is reported as 105 % of control and the T/C (dose: 4.0 mg/kg/injection, schedule: Q01DX009 (ip), vehicle: saline) is reported as 110 % of control. The T/C (dose: 20.0 mg/kg/injection, schedule: Q01DX009 (ip), vehicle: saline) was 161 % of control, the T/C (dose: 25.0 mg/kg/injection, schedule: Q01DX001 (ip), vehicle: other) was 209 % of control and the T/C (dose: 30.0 mg/kg/injection, schedule: Q01DX009 (ip), vehicle: saline) was 209 % of control. For the same compound, the T/C (dose: 50.0 mg/kg/injection, schedule: Q01DX001 (ip), vehicle: other) was 201 % of control, the T/C (dose: 52.0 mg/kg/injection, schedule: Q01DX009 (ip), vehicle: Klucel (hydroxypropylcellulose) (HPC)) was 177 % of control and the T/C (dose: 53.0 mg/kg/injection, schedule: Q01DX001 (ip), vehicle: saline) was 152 % of control. The T/C (dose: 80.0 mg/kg/injection, schedule: Q01DX001 (ip), vehicle: other) was 151 % of control, the T/C (dose: 80.0 mg/kg/injection, schedule: Q01DX001 (ip), vehicle: saline) was 152 % of control and the T/C (dose: 80.0 mg/kg/injection, schedule: Q01DX009 (ip), vehicle: saline) was 91 % of control. The T/C (dose: 120.0 mg/kg/injection, schedule: Q01DX001 (ip), vehicle: other) was 162 % of control, the T/C (dose: 120.0 mg/kg/injection, schedule: Q01DX001 (ip), vehicle: saline) was 273 % of control and the T/C (dose: 177.0 mg/kg/injection, schedule: Q01DX001 (ip), vehicle: saline) was 174 % of control. The T/C (dose: 180.0 mg/kg/injection, schedule: Q01DX001 (ip), vehicle: other) was 224 % of control, the T/C (dose: 200.0 mg/kg/injection, schedule: Q01DX001 (ip), vehicle: other) was 223 % of control and the T/C (dose: 400.0 mg/kg/injection, schedule: Q01DX001 (ip), vehicle: other) was 226 % of control.
